Results from PubChem BioAssay AID248 (DTP/NCI, 2004).
Inconclusive results and toxic doses are left out. Cut-off read from the data, not from the text of the source: active = T/C of 150% or more; inactive = T/C below 125%.

System: L1210 leukemia ip in BDF1 mice, survival T/C
Test: NCI In Vivo Anticancer Drug Screen. Data for tumor model L1210 Leukemia (intraperitoneal) in B6D2F1 (BDF1) mice
Conditions: endpoint: mean survival time, vehicle: acetone, higher = longer survival
How it was run: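 Mice bearing the transplanted tumor received compound or vehicle. Survival of the treated group was divided by that of the vehicle-treated control group to give the ratio.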

Measured: T/C

O=C1C(Cl)CCCCC1Cl (stereo not given)
inactive: dose: 100.0 mg/kg/injection, schedule: Q01DX009 (ip) 93 % of control | dose: 100.0 mg/kg/injection, schedule: Q04DX003 (ip) 111 % of control | dose: 200.0 mg/kg/injection, schedule: Q01DX009 (ip) 91 % of control | dose: 200.0 mg/kg/injection, schedule: Q04DX003 (ip) 111 % of control | dose: 400.0 mg/kg/injection, schedule: Q04DX003 (ip) 92 % of control
